Data: publication PMC5884906, “Single Administration of HBK-15—a Triple 5-HT1A, 5-HT7, and 5-HT3 Receptor Antagonist—Reverses Depressive-Like Behaviors in Mouse Model of Depression Induced by Corticosterone” (Molecular Neurobiology, 2017)
Where “and” joins values, the source holds several entries; their conditions need not be identical. Equal values may be shown once.

Experiments:
[1] = system: corticosterone-treated mice; assay: spontaneous locomotor activity, chronic administration; type: in vivo; conditions: 6 min session
Experimental: The doses and route of administration of the studied compounds were based on our previous experiments. […] Mice were injected with corticosterone (s.c., 20 mg/kg) at random times during the light phase for 21 consecutive days (Fig. 1b). The dose and route of administration of corticosterone was based on studies performed by Zhao and colleagues. Thirty minutes before, corticosterone injection mice were given (i.p.) saline, HBK-14 (1.25 or 2.5 mg/kg), HBK-15 (0.625 or 1.25 mg/kg), or fluoxetine (10 mg/kg) (Fig. 1b). Control mice received (i.p.) saline and 30 min later saline containing 0.1% dimethyl sulfoxide (DMSO) and 0.1% Tween-80 (s.c.). The experimental groups consisted of eight randomly selected animals. After the end of the procedure, animals were tested in the sucrose preference test, forced swim test, elevated plus maze test, and spontaneous locomotor activity test. Following behavioral testing, rodents were scarified and their hippocampi collected for biochemical analysis. The locomotor activity was performed as previously described. Locomotor activity was recorded individually for each mouse using activity cages made of clear Perspex (40 cm × 40 cm × 31 cm, Activity Cage 7441, Ugo Basile, Italy). The cages were supplied with I.R. horizontal beam emitters connected to a counter for the recording of light-beam interruptions. Each mouse was placed in a cage for a 30-min habituation period. […] The cages were disinfected with 70% ethanol after each mouse.

[2] = system: corticosterone-treated mice; assay: elevated plus maze, chronic administration, corticosterone model; type: in vivo
Experimental: The doses and route of administration of the studied compounds were based on our previous experiments. […] Mice were injected with corticosterone (s.c., 20 mg/kg) at random times during the light phase for 21 consecutive days (Fig. 1b). The dose and route of administration of corticosterone was based on studies performed by Zhao and colleagues. Thirty minutes before, corticosterone injection mice were given (i.p.) saline, HBK-14 (1.25 or 2.5 mg/kg), HBK-15 (0.625 or 1.25 mg/kg), or fluoxetine (10 mg/kg) (Fig. 1b). Control mice received (i.p.) saline and 30 min later saline containing 0.1% dimethyl sulfoxide (DMSO) and 0.1% Tween-80 (s.c.). The experimental groups consisted of eight randomly selected animals. After the end of the procedure, animals were tested in the sucrose preference test, forced swim test, elevated plus maze test, and spontaneous locomotor activity test. Following behavioral testing, rodents were scarified and their hippocampi collected for biochemical analysis. The elevated plus maze was performed according to the method previously described. […] Each mouse was individually placed at the central field of the apparatus with the head turned toward one of the closed arms. […] The device was disinfected with 70% ethanol after each mouse. The number of entries to open and closed arms and time spent in the open and closed arms were measured. The experiments were recorded and scored using aLab.io software by a trained observer blind to the treatments.

[3] = system: NGF level in the hippocampus; assay: NGF level in the hippocampus (ELISA), chronic administration; type: in vivo, mice; conditions: for effect on corticosterone-induced decrease in NGF level in the hippocampus: 21 days
Experimental: The doses and route of administration of the studied compounds were based on our previous experiments. […] Mice were injected with corticosterone (s.c., 20 mg/kg) at random times during the light phase for 21 consecutive days (Fig. 1b). The dose and route of administration of corticosterone was based on studies performed by Zhao and colleagues. Thirty minutes before, corticosterone injection mice were given (i.p.) saline, HBK-14 (1.25 or 2.5 mg/kg), HBK-15 (0.625 or 1.25 mg/kg), or fluoxetine (10 mg/kg) (Fig. 1b). Control mice received (i.p.) saline and 30 min later saline containing 0.1% dimethyl sulfoxide (DMSO) and 0.1% Tween-80 (s.c.). The experimental groups consisted of eight randomly selected animals. After the end of the procedure, animals were tested in the sucrose preference test, forced swim test, elevated plus maze test, and spontaneous locomotor activity test. Following behavioral testing, rodents were scarified and their hippocampi collected for biochemical analysis. After the behavioral assessments, mice were sacrificed, and their brains were rapidly removed and chilled in an ice-cold saline solution. The hippocampi were dissected on a cold plate, frozen, and stored at −80 °C until assay. On the day of experiments, tissues were thawed on ice and homogenized (1:9 w/v) in phosphate-buffered saline (4 °C) and protease inhibitor cocktail was added. The 10% homogenates were prepared and homogenized for 30 s with TissueRuptor homogenizer. The homogenized tissues were centrifuged (2500×g at 4 °C for 20 min), and the supernatants were collected for further assays. Protein concentrations of BDNF and NGF in homogenates from hippocampi were determined using the enzyme-linked immunosorbent assay (ELISA) kits (BDNF: DZE201020014, SunRed Biotechnology Company; NGF: MBS825100, MyBioSource) according to the manufacturer’s instructions. […] The samples were analyzed in duplicates, and the mean concentrations were calculated. […] The intensity of the color was read at 450 nm. Absorbance was measured in a multifunction plate reader (POLARstar Omega, BMG Labtech, Germany). […]

[4] = corticosterone 20 mg/kg s.c. 21 days + saline
[5] = 1.25 mg/kg i.p. 21 days + corticosterone

## CNCCC(Oc1ccc(C(F)(F)F)cc1)c1ccccc1 (stereo not drawn) [fluoxetine, reference compound]
[1]; 10 mg/kg i.p. 21 days + corticosterone
  Number of crossings ± S.E.M: 510.3 ± 54.0 and 423.3 ± 47.3
[2]; 10 mg/kg i.p., 21 days
  effect on corticosterone-induced decrease in number of open arm entries: prevented the decreases
  effect on corticosterone-induced decrease in time spent in the open arms: prevented the decreases in the time spent in the open arms
[3]; 10 mg/kg i.p.
  effect on corticosterone-induced decrease in NGF level in the hippocampus: protected corticosterone-treated mice from the decrease in the NGF level

## C[C@]12C[C@H](O)[C@H]3[C@@H](CCC4=CC(=O)CC[C@@]43C)[C@@H]1CC[C@@H]2C(=O)CO [corticosterone]
[1]; [4]
  Number of crossings ± S.E.M: 343.4 ± 27.3 and 394.5 ± 67.1
[2]; [4]
  decrease in open arm entries vs control: 56% and 48%
  decrease in time spent in the open arms vs control: 48%
[3]; [4]
  decrease in NGF level in the hippocampus vs control: 35%

## COc1ccccc1N1CCN(CCOCCOc2c(C)cccc2C)CC1.Cl [HBK-14, 1-[(2,6-Dimethylphenoxy)ethoxyethyl]-4-(2-methoxyphenyl)piperazine hydrochloride]
[1]; [5]
  Number of crossings ± S.E.M: 406.3 ± 64.2
[1]; 2.5 mg/kg i.p. 21 days + corticosterone
  Number of crossings ± S.E.M: 400.8 ± 55.8
[2]; 2.5 mg/kg i.p., 21 days
  effect on corticosterone-induced decrease in number of open arm entries: prevented the decreases
  effect on corticosterone-induced decrease in time spent in the open arms: prevented the decreases in the time spent in the open arms
[2]; 2.5 mg/kg i.p., 21 days, vs fluoxetine 10 mg/kg
  number of open arms entries compared with fluoxetine: significantly increased

## COc1ccccc1N1CCN(CCOCCOc2c(C)cccc2Cl)CC1.Cl [HBK-15, 1-[(2-chloro-6-methylphenoxy)ethoxyethyl]-4-(2-methoxyphenyl)piperazine hydrochloride]
[1]; 0.625 mg/kg i.p. 21 days + corticosterone
  Number of crossings ± S.E.M: 466.1 ± 84.8
[1]; [5]
  Number of crossings ± S.E.M: 478.9 ± 78.8
[2]; 2.5 mg/kg i.p., 21 days
  effect on corticosterone-induced decrease in number of open arm entries: prevented the decreases
  effect on corticosterone-induced decrease in time spent in the open arms: prevented the decreases in the time spent in the open arms
[3]; 1.25 mg/kg i.p.
  effect on corticosterone-induced decrease in NGF level in the hippocampus: protected corticosterone-treated mice from the decrease in the NGF level
